Patent US20190151341A1, “APPLICATION OF TENVERMECTIN FOR PREVENTING AND TREATING PARASITE INFECTION” (ZHEJIANG HISUN PHARMACEUTICAL CO., LTD., priority 2016, published 2019)

How the values were obtained:
[1] = tested on: swine nematode (nematodes in the digestive tract); experiment: Repelling swine nematode in naturally infected pigs (fecal egg count, McMaster's method); format: in vivo; conditions: 1% injection 0.2 mg/kg bw s.c.
Excerpt: (§1) Test agents: 1% ivermectin injection, 1% tenvermectin A injection, and 1% tenvermectin B injection as obtained in Example 1.
(§2) Test animals and grouping: pigs cultured in the same farm were selected, and 40 pigs naturally infected with nematodes in the digestive tract were selected for testing through fecal examination. The average weight of the test pigs was 30-50 kg. Forty pigs were randomly divided into 4 groups, 10 for each group. The first group was the ivermectin control group, the second group was the tenvermectin A group, and the third group was the tenvermectin B group. All the medicated groups were injected subcutaneously in the neck according to 0.2 mg/kg·bw. The forth group was a blank group and was not administered.
(§3) 1) The feces of the pigs in each group were collected and examined one by one a day before administration, and worm eggs were counted by the McMaster's method. The number of eggs per gram of feces (EPG) was counted and the condition of Haematopinus on the body surface was observed.
(§4) 2) 1, 2, 3 and 4 weeks after administration, the feces of the pigs in each group were examined by the McMaster's method, and the EPG was counted and the changes of Haematopinus on the body surface were observed.
3) The negative conversion rates and egg reduction rates of the test pigs were calculated by a conventional method to assess the efficacy of repelling swine nematode.

swine Haematopinus = experiment: Killing effect on swine Haematopinus on the body surface; format: in vivo; conditions: pigs, 1% injection 0.2 mg/kg bw s.c., until the 7th day and in the following 3 weeks
Excerpt: as §1, §2, §3, §4
4) The killing effects of swine Haematopinus of the agents were assessed according to the survival of swine Haematopinus on the 7th day after administration.

[2] = tested on: digestive tract nematodes; experiment: Repelling nematode in digestive track of sheep (fecal egg count); format: in vivo; conditions: for Number of sheep negatively conversed: sheep (20 per group); for Number of sheep negatively conversed / Egg reduction rate (%) / Negative conversion rate (%): 1% injection 0.2 mg/kg bw s.c.; for Number of sheep negatively conversed / Egg reduction rate (%) / Negative conversion rate (%) / EPG after administration: 9th day after administration; for Egg reduction rate (%) / Negative conversion rate (%) / EPG after administration / EPG before administration: sheep; for EPG after administration / EPG before administration: eggs per gram of feces; for EPG after administration: 0.2 mg/kg bw s.c.; for EPG before administration: baseline a day before administration
Excerpt: as §1
Test animals and grouping: sheep grazed under the same condition were selected, and 80 sheep of 0.8-2.0 years old naturally infected with digestive tract nematodes were selected through fecal examination. The average weight of the test sheep was 30 kg. The 80 sheep were randomly divided into 4 groups, 20 heads for each group. The first group was the ivermectin control group, the second group was the tenvermectin A group, and the third group was the tenvermectin B group. All the medicated groups were injected subcutaneously in the neck according to 0.2 mg/kg·bw. The fourth group was a blank group and was not medicated.
1) The feces of the sheep in each group were collected and examined one by one a day before administration, and the worm eggs were counted by the McMaster's method, and the number of eggs per gram of feces (EPG) was counted.
2) On the 9th day after administration, the sheep of each group were subjected to a fecal examination by McMaster's method, and EPG was counted.
3) The egg negative conversion rates and egg reduction rates were calculated according to a conventional method to assess the efficacy.

Sarcoptes mites = experiment: Treatment of Sarcoptes mites of sheep (skin scrapings, live mites); format: in vivo; conditions: 1% injection 0.2 mg/kg bw s.c.; for Negative conversion number: sheep (10 per group); for Negative conversion rate (%): sheep
Excerpt: Test agents: 1% ivermectin injection, 1% tenvermectin A injection and 1% tenvermectin B injection as obtained in Example 1.
Test animals and grouping: sheep grazed under the same conditions were selected. Upon parasitological examination, 40 sheep which had been infected with sheep Sarcoptes mites were selected. The 40 sheep were randomly divided into 4 groups, 10 heads for each group. The first group was the ivermectin control group, the second group was the tenvermectin A group, and the third group was the tenvermectin B group. All the medicated groups were injected subcutaneously in the neck according to 0.2 mg/kg·bw. The fourth group was a blank group and was not medicated.
Test methods: the changes of clinical symptoms were observed. The skin of sheep was scratched using a surgical blade with glycerin at the junction of the affected part and the healthy skin of the diseased sheep until the skin slightly bled. The skin scraps were taken then were placed in a dish and brought back to the laboratory. Then the skin scraps were placed on a slide, a drop of aqueous solution of 50% glycerol was added, and a cover slip was covered, and then the skin scraps were checked under a low magnification microscope. It was confirmed to be positive if live Sarcoptes mites were observed. Samples were taken before administration and at 1, 2, 3 and 4 weeks after administration to be examined. The samples were examined under a microscope, based on whether live mites were observed, the samples can be determined to be positive as long as one live mite was observed. Changes of clinical symptoms were observed as references.

zebrafish = experiment: Toxicity to zebrafish, semi-static method, 96 hours
Protocol: Test agents: avermectin, milbemycin, ivermectin, tenvermectin A and tenvermectin B were all from Zhejiang Hisun Pharmaceutical Co., Ltd. The samples were formulated into 50 mg/ml mother liquors with DMF.
Test fish and water: zebrafish (Brachydanio rerio) was purchased from Zhejiang Academy of Agricultural Sciences, with the same size, average body length of 2-3 cm and average body weight of 0.3 g. The zebrafish was domesticated for 7 days indoors before the test. […] Feeding was stopped 1 day before the test and the fish were not fed during the test. The test water was tap water with residual chlorine removed by exposure to the sun for more than 24 hours, and the pH thereof was 6.8.
Test methods: semi-static method. Three level differences were provided for each sample: 0.5 ppm, 1.0 ppm and 1.5 ppm, and three parallel groups were provided for each level difference, 10 zebrafish were raised for each group, and blank controls (one group without agents and one group with only solvent) were provided. The corresponding volume of mother liquor was taken according to the concentration as required for each sample, and the volume of each sample was adjusted to 150 μl with DMF, and then each sample was added to the test group (containing 1.6 L of water). The room temperature was controlled at 22±2° C. for 96 hours, and the water was changed every 24 hours and the samples were re-added. The fish mortality rate was recorded for the first 8 hours and at 24, 48, 72 and 96 hours, and the dead fish were removed in time.

SMILES	Egg reduction rate (%) ([1]; 1st week after administration)	Negative conversion rate (%) ([1]; 1st week after administration)	Egg reduction rate (%) ([1]; 2nd week after administration)	Negative conversion rate (%) ([1]; 2nd week after administration)	Egg reduction rate (%) ([1]; 3rd week after administration)	Negative conversion rate (%) ([1]; 3rd week after administration)	Egg reduction rate (%) ([1]; 4th week after administration)	Negative conversion rate (%) ([1]; 4th week after administration)	active Haematopinus observed on the body surface (swine Haematopinus)	Number of sheep negatively conversed [2]	Egg reduction rate (%) [2] [%]	Negative conversion rate (%) [2] [%]	EPG after administration [2]	EPG before administration [2]	Negative conversion number (Sarcoptes mites; 1st week)	Negative conversion number (Sarcoptes mites; 2nd week)	Negative conversion number (Sarcoptes mites; 3rd week)	Negative conversion number (Sarcoptes mites; 4th week)	Negative conversion rate (%) (Sarcoptes mites; 1st week)	Negative conversion rate (%) (Sarcoptes mites; 2nd week)	further results
CC[C@H]1O[C@]2(CC[C@@H]1C)C[C@@H]1C[C@@H](C/C=C(\C)[C@@H](O[C@H]3C[C@H](OC)[C@@H](O[C@H]4C[C@H](OC)[C@@H](O)[C@H](C)O4)[C@H](C)O3)[C@@H](C)/C=C/C=C3\CO[C@@H]4[C@H](O)C(C)=C[C@@H](C(=O)O1)[C@]34O)O2 [Tenvermectin B, tenvermectin B]	85.3	80	100	100	100	100	95.8	90	no active Haematopinus was found	20	100	100	0	12200	9	10	10	10	90	100	Negative conversion rate (%) (Sarcoptes mites; 3rd week): 100%; Negative conversion rate (%) (Sarcoptes mites; 4th week): 100%; Survival condition (survival rates/%) (zebrafish; 0.5 ppm, 8 h): 100%; Survival condition (survival rates/%) (zebrafish; 0.5 ppm, 24 h): 70%; Survival condition (survival rates/%) (zebrafish; 0.5 ppm, 48 h): 50%; Survival condition (survival rates/%) (zebrafish; 0.5 ppm, 72 h): 0%; Survival condition (survival rates/%) (zebrafish; 1.0 ppm, 8 h): 53%; Survival condition (survival rates/%) (zebrafish; 1.0 ppm, 24 h): 0%; Survival condition (survival rates/%) (zebrafish; 1.5 ppm, 8 h): 10%; Survival condition (survival rates/%) (zebrafish; 1.5 ppm, 24 h): 0%; toxicity to zebrafish, in words (zebrafish; in vivo): did not reach the level of middle toxic
COC1CC(OC2C(C)OC(OC3C(C)=CCC4CC(CC5(CCC(C)C(C)O5)O4)OC(=O)C4C=C(C)C(O)C5OCC(=CC=CC3C)C45O)CC2OC)OC(C)C1O (stereo not shown) [Tenvermectin A, tenvermectin A]	79.6	70	89.5	80	98.6	90	78.8	70	no active Haematopinus was found	20	100	100	0	11600	8	9	10	10	80	90	Negative conversion rate (%) (Sarcoptes mites; 3rd week): 100%; Negative conversion rate (%) (Sarcoptes mites; 4th week): 100%; Survival condition (survival rates/%) (zebrafish; 0.5 ppm, 8 h): 100%; Survival condition (survival rates/%) (zebrafish; 0.5 ppm, 24 h): 100%; Survival condition (survival rates/%) (zebrafish; 0.5 ppm, 48 h): 100%; Survival condition (survival rates/%) (zebrafish; 0.5 ppm, 72 h): 100%; Survival condition (survival rates/%) (zebrafish; 0.5 ppm, 96 h): 100%; Survival condition (survival rates/%) (zebrafish; 1.0 ppm, 8 h): 100%; Survival condition (survival rates/%) (zebrafish; 1.0 ppm, 24 h): 100%; Survival condition (survival rates/%) (zebrafish; 1.0 ppm, 48 h): 100%; Survival condition (survival rates/%) (zebrafish; 1.0 ppm, 72 h): 100%; Survival condition (survival rates/%) (zebrafish; 1.0 ppm, 96 h): 100%; Survival condition (survival rates/%) (zebrafish; 1.0 ppm, 96 h, listed as tenvermectin A): greater than 50%; Survival condition (survival rates/%) (zebrafish; 1.5 ppm, 8 h): 100%; Survival condition (survival rates/%) (zebrafish; 1.5 ppm, 24 h): 100%; Survival condition (survival rates/%) (zebrafish; 1.5 ppm, 48 h): 100%; Survival condition (survival rates/%) (zebrafish; 1.5 ppm, 72 h): 100%; Survival condition (survival rates/%) (zebrafish; 1.5 ppm, 96 h): 100%; 96-hour LC50 on zebrafish (zebrafish; 96 hours, semi-static): > 1 ppm
